Results as given in patent publication US7062219B2, “Protein fragment complementation assays for high-throughput and high-content screening” (Odyssey Thera Inc., priority 1997, dated 2006).
Non-standard residues stand in square brackets, D forms with d. Residues, ends and D or L forms follow the SMILES beside them. Nle = CCCC[C@H](N)C(=O)O

Tested on: p50/p65 complex
Experiment: stable HEK293T p50/p65 YFP PCA cell line, nuclear translocation (N:C ratio)
Assay type: cell-based
Description: Stable cell lines represent the gold standard for HTS since the assays can be reconstructed at any time from frozen stocks of cells. […] First, cells were co-transfected with YFP[2]-p65 encoding vectors, and stable cell lines were selected using 100 micrograms/ml of Hygromycin B (Invitrogen). Selected cell lines were then transfected with YFP[1]-p50. Stable cell lines expressing YFP[1]-p50/YFP[2]-p65 were isolated following double antibiotic selection with 50 μg/ml Hygromycin B and 500 μg/ml Zeocin. Cell clones stably expressing the fusion genes were identified by immunoblot analysis and fluorescence microscopy. A single cell line of each transfectant was selected for further characterization. Fluorescence of these lines is stable over at least 25 passages (data not shown). A stable, MEK/ERK cell line—constructed as described below—was used as a control for TNF effects. Fugene 6 (Roche) was used for all the transfections according to manufacturer's directions. Cells stably expressing YFP[1]-p50/YFP[2]-p65 were seeded at 20,000 cells/well in black-walled poly-lysine coated 96 well plate (Greiner). Twenty-four hours later, the cells were incubated with human TNF-alpha (Roche) for 30 min. Nuclei were stained with Hoechst 33342 (Molecular Probes) at 10 micrograms/ml for 10 min. Cells were rinsed with HBSS (Invitrogen) and kept in the same buffer. Fluorescence was visualized and images were acquired using a Discovery-1 automated fluorescence imager (Molecular Devices, Inc.) equipped with excitation and emission filters 470/35 and 535/60, respectively. […] For the high throughput screening campaign described below, cells were pretreated with compounds (10 micromolar) for 60 minutes and then stimulated with TNFalpha for 30 minutes in the presence of drugs. Cells were then fixed with 2% formaldehyde in HBSS and subsequently stained with Hoechst 33342. All liquid handling was done using a Biomek FX (Beckman) instrument and images were acquired as described above. Images were analyzed using Image J. Translocation is assessed by calculating the nuclear/cytoplasmic ratio of the mean fluorescence intensity for a population of cells (denoted as n) over several images for a given condition.
Genesis Plus is a collection of 960 diverse compounds, and includes compounds with known toxicity or fluorescent properties. Inclusion of compounds with such properties is important in HTS assay validation, as they might complicate analysis. The final concentration of compounds in wells was 10 micromolar, and all wells contained 0.5% DMSO concentration. […] Following fixation and staining of nuclei, fluorescence was analyzed on the automated fluorescent microscopy platform (Discovery 1; Universal Imaging/Molecular Devices Corp.). […]

CCCC[C@@H](C=O)NC(=O)[C@H](CC(C)C)NC(=O)[C@H](CC(C)C)NC(C)=O [ALLN] (Ac-Leu-Leu-[Nle]-aldehyde)
block of TNF-induced increases in the N:C ratio of p50/p65 complexes (ALLN treatment for 4 hr): 76% | effect on the TNF response in the stable p65/p50 PCA cell line (in words) (FIG. 12(B)): inhibition of the TNF response
